In PubChem BioAssay (NCI):
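Assay format: 96-well plates, 48-hour exposure. At the GI50, growth is halved. TGI denotes the concentration required for complete inhibition of growth.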

Columns and labels:
Experiment in all cases: NCI-60 cell line screen, 48 h; in the data active = GI50 below about 0.43 µM; inactive = the rest
SNB-19 CNS = test system: SNB-19 CNS
MDA-MB-231 breast = test system: MDA-MB-231 breast
SK-MEL-5 melanoma = test system: SK-MEL-5 melanoma
786-0 renal = test system: 786-0 renal
HCT-116 colon = test system: HCT-116 colon
OVCAR-3 ovarian = test system: OVCAR-3 ovarian
KM12 colon = test system: KM12 colon
CCRF-CEM leukemia = test system: CCRF-CEM leukemia
PC-3 prostate = test system: PC-3 prostate
U251 CNS = test system: U251 CNS

COc1c2cc(C(C)(C)C)cc1CSCc1cc(C(C)(C)C)cc(c1OC)CCCCC2
> 50 µM: TGI (SNB-19 CNS) | TGI (MDA-MB-231 breast) | TGI (SK-MEL-5 melanoma) | TGI (786-0 renal) | TGI (HCT-116 colon) | TGI (OVCAR-3 ovarian) | TGI (KM12 colon) | TGI (CCRF-CEM leukemia) | TGI (PC-3 prostate) | TGI (U251 CNS)

NCCC1(N)CCNCC1
> 100 µM: TGI (SNB-19 CNS) | TGI (MDA-MB-231 breast) | TGI (SK-MEL-5 melanoma) | TGI (786-0 renal) | TGI (HCT-116 colon) | TGI (KM12 colon) | TGI (CCRF-CEM leukemia) | TGI (PC-3 prostate) | TGI (U251 CNS)

CCOC(=O)c1cc2cc(Cc3ccc4[nH]c(C(=O)OCC)cc4c3)ccc2[nH]1
> 100 µM: TGI (HCT-116 colon) | TGI (OVCAR-3 ovarian) | TGI (KM12 colon) | TGI (CCRF-CEM leukemia) | TGI (PC-3 prostate)
29.9 µM: TGI (U251 CNS)
13 µM: TGI (786-0 renal)
37.9 µM: TGI (MDA-MB-231 breast)
30.6 µM: TGI (SNB-19 CNS)

C[N+]1(C)CC=C(N2CCOCC2)CC1
> 10 µM: TGI (SNB-19 CNS) | TGI (MDA-MB-231 breast) | TGI (SK-MEL-5 melanoma) | TGI (786-0 renal) | TGI (HCT-116 colon) | TGI (OVCAR-3 ovarian) | TGI (KM12 colon) | TGI (CCRF-CEM leukemia) | TGI (PC-3 prostate) | TGI (U251 CNS)

N#Cc1[nH]c(=O)n(-c2ccc([N+](=O)[O-])cc2)c1N
> 10 µM: TGI (SNB-19 CNS) | TGI (MDA-MB-231 breast) | TGI (SK-MEL-5 melanoma) | TGI (786-0 renal) | TGI (HCT-116 colon) | TGI (OVCAR-3 ovarian) | TGI (CCRF-CEM leukemia) | TGI (PC-3 prostate) | TGI (U251 CNS)

CCOC(=O)C1(Cc2ccc(C)cc2)Cc2ccc(C)cc2C1=O (centres undefined)
64.1 µM: TGI (CCRF-CEM leukemia)
20.8 µM: TGI (SK-MEL-5 melanoma)
35.6 µM: TGI (U251 CNS)
> 60.2 µM: TGI (HCT-116 colon)
> 72.3 µM: TGI (KM12 colon)
> 100 µM: TGI (SNB-19 CNS) | TGI (MDA-MB-231 breast) | TGI (786-0 renal) | TGI (OVCAR-3 ovarian) | TGI (PC-3 prostate)

CCOC(=O)c1ccc(NC2Oc3cc4c(cc3C(c3cc(OC)c(OC)c(OC)c3)C2C)OCO4)cc1 (centres undefined)
> 100 µM: TGI (SNB-19 CNS) | TGI (PC-3 prostate)
> 51.7 µM: TGI (HCT-116 colon)
> 42.5 µM: TGI (U251 CNS)
3.69 µM: TGI (KM12 colon)
2.24 µM: TGI (MDA-MB-231 breast)
1.49 µM: TGI (SK-MEL-5 melanoma)
> 20.3 µM: TGI (CCRF-CEM leukemia)
46.6 µM: TGI (786-0 renal)

O=C(NCc1cn(Cc2cccc(Oc3ccccc3)c2)nn1)c1cccnc1Nc1ccccc1
inactive: GI50 (SNB-19 CNS) 3.27 µM | GI50 (MDA-MB-231 breast) 2.25 µM | GI50 (SK-MEL-5 melanoma) 3.89 µM | GI50 (HCT-116 colon) 3.4 µM | GI50 (OVCAR-3 ovarian) 2.28 µM | GI50 (KM12 colon) 3.63 µM | GI50 (CCRF-CEM leukemia) 3.34 µM | GI50 (PC-3 prostate) 3.27 µM | GI50 (U251 CNS) 3.61 µM
23.5 µM: TGI (HCT-116 colon)
5.97 µM: TGI (MDA-MB-231 breast)
46.4 µM: TGI (KM12 colon)
18.9 µM: TGI (U251 CNS)
28.3 µM: TGI (SK-MEL-5 melanoma)
> 100 µM: TGI (SNB-19 CNS) | TGI (CCRF-CEM leukemia) | TGI (PC-3 prostate)
5.46 µM: TGI (OVCAR-3 ovarian)

Cc1ccc(N=Nc2c(O)c3ccccc3[nH]c2=O)c(S(=O)(=O)N(C)C)c1
> 100 µM: TGI (SNB-19 CNS) | TGI (MDA-MB-231 breast) | TGI (SK-MEL-5 melanoma) | TGI (786-0 renal) | TGI (HCT-116 colon) | TGI (OVCAR-3 ovarian) | TGI (KM12 colon) | TGI (CCRF-CEM leukemia) | TGI (PC-3 prostate) | TGI (U251 CNS)

COC(=O)C1Cc2c(C)cccc2C1=O (centres undefined)
> 100 µM: TGI (SNB-19 CNS) | TGI (MDA-MB-231 breast) | TGI (SK-MEL-5 melanoma) | TGI (786-0 renal) | TGI (HCT-116 colon) | TGI (OVCAR-3 ovarian) | TGI (KM12 colon) | TGI (CCRF-CEM leukemia) | TGI (PC-3 prostate) | TGI (U251 CNS)
